{
  "source": "patent US11311609B2",
  "about": "“Regulating chimeric antigen receptors” (DANA-FARBER CANCER INSTITUTE, INC., priority 2017, dated 2022)",
  "assay_type_in_all_cases": "cell-based",
  "key": {"[1]": {"biological_target": "T1, FKBP* (Homo sapiens, UniProt P62942, F37V)", "T1 construct": "HA; expressed in transfected cells; host or cells: 293FT cells (CRBN-WT or CRBN-/-)", "T1 sequence (P62942 whole entry F37V)": "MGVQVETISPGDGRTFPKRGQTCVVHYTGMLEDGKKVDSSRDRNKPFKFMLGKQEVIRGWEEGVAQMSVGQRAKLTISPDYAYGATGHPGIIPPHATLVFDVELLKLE", "assay": "Immunoblot of FKBP* degradation in 293FT cells (CRBN-WT or CRBN-/-)", "conditions": "4 hours", "description": "FIG. 6 is an immunoblot of cells treated with bi-functional molecules described in the present invention. As described in Example 3, 293FT cells (CRBN-WT or CRBN−/−) expressing either HA-tagged FKBP12WT or FKBP* (also referred to as dFKBP12* herein) were treated with indicated concentrations of dFKBP7 for 4 hours.\nFIG. 8 is an immunoblot of cells treated with heterobifunctional compounds described in the present invention. Isogenic 293FT cells (CRBN-WT or CRBN−/−) expressing either FKBP12WT or FKBP* were treated with 100 nM of either dFKBP7 or dFKBP13 for 4 hours (Example 5).\nFIG. 9 is an immunoblot of cells treated with heterobifunctional compounds described in the present invention. Isogenic 293FT cells (CRBN-WT or CRBN−/−) expressing HA-tagged FKBP* were treated with the indicated dose of dFKBP13 for 4 hours (Example 6).\nFIG. 11 is an immunoblot of cells treated with heterobifunctional compounds described in the present invention. 293FT cells (CRBN-WT) expressing FKBP* were pretreated with 1 uM Carfilzomib (proteasome inhibitor), 0.5 uM MLN4924 (neddylation inhibitor), and 10 uM Lenalidomide (CRBN binding ligand) for two hours prior to a 4 hour treatment with dFKBP13 (Example 8). Degradation of HA-tagged FKBP* by dFKBP13 was rescued by the proteasome inhibitor Carfilzomib, establishing a requirement for proteasome function.\nThe dTAG is predicated on the selectivity of FKBP* specific ligands over endogenous, wild type FKBP. In 293T cells expressing wild type FKBP12 or FKBP*, dFKBP7 induces targeted degradation only in FKBP* expressing cells. An immunoblot of cells treated with bi-functional molecules described in the present invention was performed. 293FT cells (CRBN-WT or CRBN−/−) expressing either HA-tagged FKBP12WT or FKBP* were treated with indicated concentrations of dFKBP7 for 4 hours.\nIn 293T cells expressing wild type FKBP12 or FKBP*, treatment with dFKBP7 and dFKBP13 induces targeted degradation only in FKBP* expressing cells. Isogenic 293FT cells (CRBN-WT or CRBN−/−) were engineered to express either FKBP12WT or FKBP*. Cells were treated with 100 nM of either dFKBP7 or dFKBP13 for 4 hours before lysates were prepared for western immunoblot analysis.\nIn an effort to define the optimal concentration of dFKB13 heterobifunctional compounds to induce degradation of FKBP*, degradation was measured upon treatment with increasing concentrations of dFKBP13. Isogenic 293FT cells (CRBN-WT or CRBN−/−) were engineered to expressed HA-tagged FKBP*. Cells were treated with the indicated dose of dFKBP13 for 4 hours before lysates were prepared for western immunoblot analysis.\n293FT cells (CRBN-WT) were engineered to express FKBP*. Cells were pretreated with 1 uM Carfilzomib (proteasome inhibitor), 0.5 uM MLN4924 (neddylation inhibitor), and 10 uM Lenalidomide (CRBN binding ligand) for two hours prior to a 4-hour treatment with dFKBP13. Lysates were prepared and western immunoblot analysis performed. Degradation of HA-tagged FKBP* by dFKBP13 was rescued by the proteasome inhibitor Carfilzomib, establishing a requirement for proteasome function."}, "[2]": {"biological_target": "T2, CD19-CAR-dTAG (Homo sapiens, UniProt P62942+Q96SW2, F37V/H95N/M50V/V99I)", "T2 construct": "HA; expressed in transfected cells; host or cells: Jurkat T-cells, lentiviral transduction, blasticidin selection", "T2 sequence (P62942 with tags, fused parts or gaps F37V/M50V/H95N/V99I limits assumed)": "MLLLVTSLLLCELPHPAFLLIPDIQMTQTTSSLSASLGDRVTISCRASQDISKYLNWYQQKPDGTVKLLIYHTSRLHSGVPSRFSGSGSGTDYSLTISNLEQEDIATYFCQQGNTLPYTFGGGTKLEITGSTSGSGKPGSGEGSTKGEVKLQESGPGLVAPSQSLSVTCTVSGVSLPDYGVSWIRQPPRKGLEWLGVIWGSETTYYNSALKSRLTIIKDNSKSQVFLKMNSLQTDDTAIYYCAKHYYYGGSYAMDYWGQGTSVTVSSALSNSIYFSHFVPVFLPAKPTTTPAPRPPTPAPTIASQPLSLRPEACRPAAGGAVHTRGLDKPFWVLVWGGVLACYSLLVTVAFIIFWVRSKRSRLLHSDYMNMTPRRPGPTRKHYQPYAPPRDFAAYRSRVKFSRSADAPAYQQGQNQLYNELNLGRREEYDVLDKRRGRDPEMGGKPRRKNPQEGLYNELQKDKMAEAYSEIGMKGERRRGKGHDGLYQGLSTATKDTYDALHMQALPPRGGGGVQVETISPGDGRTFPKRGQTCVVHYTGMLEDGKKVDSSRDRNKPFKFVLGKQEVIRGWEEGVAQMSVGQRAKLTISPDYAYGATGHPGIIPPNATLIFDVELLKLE", "T2 sequence (Q96SW2 whole entry)": "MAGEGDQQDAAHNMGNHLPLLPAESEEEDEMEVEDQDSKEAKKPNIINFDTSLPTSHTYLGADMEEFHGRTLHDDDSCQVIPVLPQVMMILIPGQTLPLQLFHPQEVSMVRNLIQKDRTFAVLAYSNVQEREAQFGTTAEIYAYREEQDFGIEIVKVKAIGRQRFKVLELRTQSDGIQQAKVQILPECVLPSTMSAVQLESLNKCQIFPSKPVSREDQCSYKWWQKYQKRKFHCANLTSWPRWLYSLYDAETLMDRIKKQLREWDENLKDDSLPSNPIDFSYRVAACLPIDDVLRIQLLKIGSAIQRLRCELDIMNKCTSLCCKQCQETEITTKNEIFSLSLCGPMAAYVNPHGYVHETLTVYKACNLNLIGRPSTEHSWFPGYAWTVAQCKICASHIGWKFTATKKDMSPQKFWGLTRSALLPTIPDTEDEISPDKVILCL", "T2 sequence (Q16531 whole entry partner)": "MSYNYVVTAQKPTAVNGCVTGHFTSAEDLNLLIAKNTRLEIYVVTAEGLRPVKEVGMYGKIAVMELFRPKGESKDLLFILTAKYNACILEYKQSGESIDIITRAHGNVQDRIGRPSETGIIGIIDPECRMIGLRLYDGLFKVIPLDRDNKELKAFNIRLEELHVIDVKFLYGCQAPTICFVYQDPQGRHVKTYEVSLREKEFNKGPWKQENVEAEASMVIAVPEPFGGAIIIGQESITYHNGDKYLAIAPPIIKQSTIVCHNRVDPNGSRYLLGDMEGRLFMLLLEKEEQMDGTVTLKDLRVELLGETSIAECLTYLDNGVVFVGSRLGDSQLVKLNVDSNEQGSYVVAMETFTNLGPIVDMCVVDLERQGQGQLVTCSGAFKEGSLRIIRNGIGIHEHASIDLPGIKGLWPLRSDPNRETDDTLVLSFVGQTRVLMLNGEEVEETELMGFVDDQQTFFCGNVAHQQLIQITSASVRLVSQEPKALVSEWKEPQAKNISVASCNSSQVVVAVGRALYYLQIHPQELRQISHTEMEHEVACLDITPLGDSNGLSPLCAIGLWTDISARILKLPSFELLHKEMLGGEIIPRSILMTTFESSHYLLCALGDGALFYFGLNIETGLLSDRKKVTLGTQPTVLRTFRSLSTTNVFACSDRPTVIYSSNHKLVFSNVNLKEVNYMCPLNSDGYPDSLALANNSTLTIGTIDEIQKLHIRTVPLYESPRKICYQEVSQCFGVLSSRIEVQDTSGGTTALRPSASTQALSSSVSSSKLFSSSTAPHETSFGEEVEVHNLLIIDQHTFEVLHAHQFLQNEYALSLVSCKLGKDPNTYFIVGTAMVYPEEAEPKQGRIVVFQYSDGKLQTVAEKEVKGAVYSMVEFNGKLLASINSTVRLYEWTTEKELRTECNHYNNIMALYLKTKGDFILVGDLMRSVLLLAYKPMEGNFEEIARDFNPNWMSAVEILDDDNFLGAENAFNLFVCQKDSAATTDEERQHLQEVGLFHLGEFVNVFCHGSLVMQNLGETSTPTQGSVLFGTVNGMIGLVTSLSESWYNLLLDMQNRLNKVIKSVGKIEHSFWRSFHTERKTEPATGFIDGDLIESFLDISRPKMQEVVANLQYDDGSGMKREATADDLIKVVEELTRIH", "assay": "Immunoblot of CD19-CAR-dTAG degradation in Jurkat T-cells", "description": "FIG. 14A and FIG. 14B are immunoblots of cells treated with heterobifunctional compounds described in the present invention.\nFIG. 15A and FIG. 15B are immunoblots of cells treated with bi-functional molecules described in the present invention.\nFIG. 16 is an immunoblot of cells treated with heterobifunctional compounds described in the present invention.\nAt 4 and 12 hours, the dFKBP7 was washed out of the Jurkat cells. At each indicated timepoint, Jurkat cells were harvest to monitor CD19-CAR-dTAG expression levels via immunoblot analysis. FIG. 17B is the resulting immunoblot from the experimental design in FIG. 17A.\nJurkat T-cells were transduced with lentivirus expressing CD19-CAR-dTAG. Cells were selected with blasticidin and expanded.\nJurkat T-cells were engineered to express CD19-CAR-dTAG. Cells were treated with the indicated dose of dFKBP7 or dFKBP13 for 4 hours before lysates were prepared for western immunoblot analysis.\nJurkat T-cells were engineered to express CD19-CAR-dTAG. Cells were treated with 250 nM dFKBP7 or dFKBP13 for the indicated time before lysates were prepared for immunoblot analysis.\nAt 4 and 12 hours, the dFKBP7 was washed out of the Jurkat cells. At each indicated timepoint, Jurkat cells were harvest to monitor CD19-CAR-dTAG expression levels via immunoblot analysis."}, "[3]": {"tested_on": "IL-2", "assay": "IL-2 ELISA of co-culture supernatants of SMART-CAR expressing Jurkat T-cells", "conditions": "CD19 positive Raji cells; 1:3 ratio; 4 hours; 250 nM dFKBP7", "description": "FIG. 35 is a histogram bar plot quantifying IL-2 levels produced from SMART-CAR expressing Jurkat T-cells after co-incubation with antigen expressing K562 cells in a 1:3 ratio (T cell to K562 cell) for 24 hours as described in Example 29. IL-2 levels were quantified by ELISA using co-culture supernatants.\nFIG. 36 is a histogram bar plot quantifying IL-2 levels produced from SMART-CAR expressing Jurkat T-cells after co-incubation with CD19 positive Raji cells in a 1:3 ratio (T cells to Raji cells) for 4 hours.\nFIG. 35 illustrates the specificity in activation of SMART-CAR expressing T-cells for CD19 expressing target tumor cells. SMART-CAR expressing Jurkat T-cells were co-incubated with antigen expressing K562 cells in a 1:3 ratio (T cell to K562 cell) for 24 hours. IL-2 levels were quantified by ELISA using co-culture supernatants.\nFIG. 36 illustrates the chemical control of SMART-CAR expressing T-cell activation using the hetero bifunctional molecule dFKBP7. SMART-CAR expressing Jurkat T-cells were co-incubated with CD19 positive Raji cells in a 1:3 ratio."}},
  "data": [
    {"smiles": "CC[C@H](C(=O)N1CCCC[C@H]1C(=O)O[C@H](CCc1ccc(OC)c(OC)c1)c1cccc(OCC(=O)NCCCOCCOCCOCCCNC(=O)COc2cccc3c2C(=O)N(C2CCC(=O)NC2=O)C3=O)c1)c1cc(OC)c(OC)c(OC)c1", "note": "(stereo partly shown) [dFKBP7]", "values": [
      {"measurement": "Degradation of HA-tagged FKBP* (immunoblot)", "setting": "[1]; 293FT cells CRBN-WT or CRBN-/-, indicated concentrations", "value": "CRBN-dependent degradation of FKBP*"},
      {"measurement": "Degradation of FKBP* (immunoblot)", "setting": "[1]; isogenic 293FT cells CRBN-WT or CRBN-/-, 100 nM", "value": "CRBN-dependent degradation of FKBP*"},
      {"measurement": "Re-expression of CD19-CAR-dTAG protein after washout", "setting": "[2]; Jurkat T-cells, 250 nM for 4 hours, then washouts", "value": "recovered"},
      {"measurement": "Degradation of CD19-CAR-dTAG, time dependence", "setting": "[2]; Jurkat T-cells, 250 nM, indicated time", "value": "time-dependent degradation of CD19-CAR-dTAG"},
      {"measurement": "Degradation of CD19-CAR-dTAG, dose dependence", "setting": "[2]; Jurkat T-cells, indicated dose, 4 hours", "value": "dose-dependent degradation of CD19-CAR-dTAG"},
      {"measurement": "Rheostat chemical control of CD19-CAR-dTAG expression", "setting": "[2]; Jurkat cells, 250 nM at 0 and 8 hours, washed out at 4 and 12 hours", "value": "exquisite chemical control of CD19-CAR-dTAG protein levels allowing for modulation within hours"},
      {"measurement": "IL-2 production", "setting": "[3]", "value": "completely suppressed"}
    ]}
  ]
}
